Laboratory results published in article PMC8448819, “The Arabidopsis MIK2 receptor elicits immunity by sensing a conserved signature from phytocytokines and microbes” (Nature Communications, 2021).
No end group written: not given here.

Tests used:
[1] = tested on: mik2-1 and mik2-2 mutant seedlings; type: in vivo, Arabidopsis thaliana; conditions: in vivo
[2] = tested on: PEPR1^ECD-MIK2^TK/pepr1,2 transgenic seedlings; experiment: Root growth assay, PEPR1^ECD-MIK2^TK/pepr1,2 seedlings; type: in vivo, Arabidopsis thaliana; conditions: PEPR1^ECD-MIK2^TK/pepr1,2 compared to WT
From the text: The BAK1 (AT4G33430), SERK4 (AT2G13790), BIK1 (AT2G39660), and MIK2 (AT4G08850) coding sequences (CDSs) were amplified by PCR from Col-0 cDNA using the primers containing BamHI at the 5′ end and StuI at the 3′ end. The PCR products were digested by BamHI and StuI, followed by ligation into the pHBT-FLAG or pHBT-HA vector to generate pHBT-35S::BAK1-FLAG, pHBT-35S::SERK4-FLAG, pHBT-35S::BIK1-HA, pHBT-35S::MIK2-HA, and pHBT-35S::MIK2-GFP constructs[24],[41],[62]. MIK2^ECD (residues 1–707) and BAK1^ECD (residues 1–220) were amplified by PCR from Col-0 cDNA and cloned into pFastBac-1 vector with a C-terminal 6× HIS tag[25],[62]. The fusion protein vectors carrying MIK2^ECD or BAK1^ECD were used for insect cell expression. To obtain the binary vector pCAMBIA1300-35S::RLK7, a 2907-bp RLK7 CDS was PCR-amplified from WT cDNA using gene-specific primers with KpnI and SalI at the 5′ and 3′ ends, respectively, followed by KpnI and SalI digestion and ligation into the pCAMBIA1300 vector. […]
Cold stratified seeds were surface-sterilized with 70% (v/v) ethanol for 5 min and were sown on ½MS plates with or without peptides at indicated concentrations. Ten-day-old seedlings grown on plates vertically in a growth chamber were photographed, and the root lengths of seedlings were measured using Image J (http://rsb.info.nih.gov/ij/).

[3] = In vitro protein cleavage assay and LC-MS/MS; type: biochemical, Arabidopsis thaliana
Experimental: Recombinant HIS-SCOOP12 proteins were expressed in E. coli BL21 strain with an isopropyl β-D-1-thiogalactopyranoside (IPTG)-inducible system and purified with Ni-NTA agarose (QIAGEN, #166048536) in buffer containing 50 mM Tris-HCl pH 7.5 and 300 mM NaCl. For in vitro protein cleavage assay, 5 μg of purified HIS-SCOOP12 proteins were incubated with 10 μL protein extracts isolated from 10-day-old Arabidopsis WT seedlings or protein extraction buffer (50 mM HEPES, pH 7.4, 10 mM EDTA, and 1× protease inhibitor cocktail, Sigma) following a published protocol[36] for 5 h at room temperature with rotation. […] The processed SCOOP12 bands were cut from SDS-PAGE for LC-MS/MS analysis.
The processed SCOOP12 bands were in-gel digested following a published protocol, except that digestion was conducted with Lys-C (Promega, Madison, WI, USA). The digested peptides were desalted using micro ZipTip mini-reverse phase (Millipore). In brief, after wetting (with 50% acetonitrile) and equilibrating a ZipTip (with 0.1% formic acid), the peptides were bound to C-18 material. A subsequent washing step with 0.1% formic acid was followed by a final elution with 60% acetonitrile and 0.1% formic acid. The samples were lyophilized to dryness using a labconco speedvac (Centrivap, Labconco Inc., USA). The resulting peptides were resuspended in 0.1% formic acid for mass spectrometric analysis. The mass spectrometry data acquisition was performed on an EASY-nLC 1200 ultraperformance liquid chromatography system (Thermo Scientific Inc., San Jose, CA) connected to an Orbitrap Q-Exactive HF instrument equipped with a nano-electrospray source (Thermo Scientific Inc., San Jose, CA)[67]. The peptide samples were loaded to a C18 trapping column (75 μm i.d. × 2 cm, Acclaim PepMap® 100 particles with 3 μm size and 100 Å pores) and then eluted using a C18 analytical column (75 μm i.d. × 25 cm, 2 μm particles with 100 Å pore size). […] All MS/MS samples were analyzed using Mascot Daemon (Matrix Science, London, UK; version 2.4.0). […]

[4] = target: T1, MIK2^ECD, extracellular LRR domain of MALE DISCOVERER 1-INTERACTING RECEPTOR-LIKE KINASE 2 (Arabidopsis thaliana, UniProt Q8VZG8 44-707); experiment: SPR; conditions: both partners purified
T1 construct: also called MIK2^ECD-6×HIS
T1 sequence (looked up): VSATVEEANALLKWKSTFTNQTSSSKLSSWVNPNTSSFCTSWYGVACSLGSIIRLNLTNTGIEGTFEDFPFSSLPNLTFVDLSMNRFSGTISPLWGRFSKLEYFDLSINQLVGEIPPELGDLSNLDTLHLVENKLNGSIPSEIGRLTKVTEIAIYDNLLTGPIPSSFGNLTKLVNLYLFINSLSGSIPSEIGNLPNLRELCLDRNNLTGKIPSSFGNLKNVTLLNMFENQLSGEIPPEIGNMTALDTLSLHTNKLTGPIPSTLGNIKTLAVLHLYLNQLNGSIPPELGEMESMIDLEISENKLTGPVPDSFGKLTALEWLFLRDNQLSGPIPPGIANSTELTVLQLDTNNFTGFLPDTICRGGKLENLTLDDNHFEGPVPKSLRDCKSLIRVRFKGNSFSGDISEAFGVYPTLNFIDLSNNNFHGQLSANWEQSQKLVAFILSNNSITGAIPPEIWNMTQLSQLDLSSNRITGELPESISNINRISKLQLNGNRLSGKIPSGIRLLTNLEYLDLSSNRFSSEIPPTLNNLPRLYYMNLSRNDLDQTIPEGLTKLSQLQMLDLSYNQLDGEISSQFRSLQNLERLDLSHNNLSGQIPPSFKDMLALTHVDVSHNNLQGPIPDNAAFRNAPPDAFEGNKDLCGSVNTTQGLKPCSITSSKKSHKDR

[5] = target: T1, MIK2^ECD, extracellular LRR domain of …; experiment: ITC; MicroCal ITC200, 25 °C, 200 mM HEPES pH 7.0, 100 mM NaCl; 600 µM peptide injected into 30 µM MIK2^ECD in the cell; conditions: both partners purified

With “ATKVKAKQRGKEKVSSGRPGQHN [Pep1, plant endogenous peptide recognized by PEPR1/PEPR2]” the “response of mik2-1 to Pep1” value [1] was “responded to the Pep1 treatment similarly to WT plants”, the “brown roots and darkened root-hypocotyl junctions” value [2] was “brown roots, and darkened root-hypocotyl junctions” and the “root growth retardation” value [2] was “severe root growth retardation”.

For “HIS-SCOOP12: recombinant HIS-SCOOP12 proteins expressed in E. coli (LMGSGASGPVRSSQSSQAGGRFNDADPIAIDYGKY; also: His tag (not in given chain); UniProt B3H7I1 44-78, looked up)”, the “proteolytic processing by Arabidopsis protein extracts” value ([3]; 5 μg HIS-SCOOP12, seedling extract, 5 h, room temperature, pH 7.4) was “proteolytically processed upon incubation with Arabidopsis protein extracts”, the cleavage site ([3]; Nano-LC-MS/MS) was “cleaved after arginine 43 (R^43)” and the “identified SCOOP12 fragment” value ([3]; Nano-LC-MS/MS, in-gel Lys-C digestion) was “from leucine 44 (L^44) to lysine 78 (Y^78)”.

B1: SCOOP12^SS/AA peptide (peptide)
chain: PVRSAQASQAGGR
modifications: Synthetic peptide. Exact limits are in Supplementary Data 4 (not shown); same conventional 13-mer as m1, with both SxS-motif serines changed to alanine.
Work on B1 yielded a Kd [4] of 3480 µM.

B2: SCOOP12 peptide (SERINE-RICH ENDOGENOUS PEPTIDE 12) (peptide)
chain: PVRSSQSSQAGGR
modifications: Synthetic peptide, unlabelled in ITC/SPR; an N-terminal TAMRA version was used for in vivo binding. Exact limits are in Supplementary Data 4 (not shown). Limits taken as the commonly used 13-mer …
In the case of B2, the Kd [4] is reported as 1.78 µM, the Kd [5] is reported as 3.18 µM and the “stoichiometry N” value [5] is reported as ~1.
